± gives the expanded uncertainty stated by the source.
What was measured:
[1] = refractive index (Na D-line) (dimensionless); conditions: 101.33 kPa, Liquid, Standard Abbe refractometry
[2] = for viscosity / speed of sound / mass density: 101.33 kPa, Liquid; for viscosity: Capillary tube (Ostwald / Ubbelohde) method; for speed of sound: Pulse-echo method; for mass density: Vibrating tube method; for Normal melting temperature: Crystal, DTA

Row | Structure (SMILES) | refractive index ([1]; 308.15 K) | refractive index ([1]; 313.15 K) | refractive index ([1]; 318.15 K) | refractive index ([1]; 323.15 K) | refractive index ([1]; 328.15 K) | refractive index ([1]; 333.15 K) | refractive index ([1]; 338.15 K) | refractive index ([1]; 343.15 K) | viscosity ([2]; 328.15 K) | speed of sound ([2]; 328.15 K) | mass density ([2]; 328.15 K) | viscosity ([2]; 333.15 K) | speed of sound ([2]; 333.15 K) | mass density ([2]; 333.15 K) | viscosity ([2]; 338.15 K) | speed of sound ([2]; 338.15 K) | mass density ([2]; 338.15 K) | viscosity ([2]; 343.15 K) | speed of sound ([2]; 343.15 K) | mass density ([2]; 343.15 K) | other results
1 | CCCC[N+]1(C)CCCC1.COS(=O)(=O)[O-] [1-butyl-1-methylpyrrolidinium methyl sulfate] | 1.47054 ± 0.0011 | 1.46924 ± 0.0011 | 1.46792 ± 0.0011 | 1.46661 ± 0.0011 | 1.46536 ± 0.0011 | 1.46406 ± 0.0011 | 1.46274 ± 0.0011 | 1.46143 ± 0.0011 | 86.1 ± 2.5 mPa·s | 1662.2 ± 5.1 m/s | 1148.42 ± 7.2 kg/m3 | 69.2 ± 1.9 mPa·s | 1649.8 ± 5.1 m/s | 1145.42 ± 7.1 kg/m3 | 56.4 ± 1.5 mPa·s | 1637.6 ± 5.1 m/s | 1142.44 ± 7.1 kg/m3 | 46.6 ± 1.3 mPa·s | 1625.5 ± 5.1 m/s | 1139.47 ± 7 kg/m3 | refractive index ([1]; 298.15 K): 1.47308 ± 0.0011; refractive index ([1]; 303.15 K): 1.47184 ± 0.0011; viscosity ([2]; 298.15 K): 467.5 ± 26 mPa·s; speed of sound ([2]; 298.15 K): 1741.6 ± 5.1 m/s; mass density ([2]; 298.15 K): 1166.69 ± 7.4 kg/m3; viscosity ([2]; 303.15 K): 334.9 ± 17 mPa·s; speed of sound ([2]; 303.15 K): 1727.3 ± 5.1 m/s; mass density ([2]; 303.15 K): 1163.58 ± 7.4 kg/m3; viscosity ([2]; 308.15 K): 245.6 ± 11 mPa·s; speed of sound ([2]; 308.15 K): 1713.6 ± 5.1 m/s; mass density ([2]; 308.15 K): 1160.46 ± 7.3 kg/m3; viscosity ([2]; 313.15 K): 184.1 ± 7.3 mPa·s; speed of sound ([2]; 313.15 K): 1700.3 ± 5.1 m/s; mass density ([2]; 313.15 K): 1157.4 ± 7.3 kg/m3; viscosity ([2]; 318.15 K): 139.2 ± 4.9 mPa·s; speed of sound ([2]; 318.15 K): 1687.4 ± 5.1 m/s; mass density ([2]; 318.15 K): 1154.4 ± 7.2 kg/m3; viscosity ([2]; 323.15 K): 107.8 ± 3.4 mPa·s; speed of sound ([2]; 323.15 K): 1674.7 ± 5.1 m/s; mass density ([2]; 323.15 K): 1151.42 ± 7.2 kg/m3
2 | CC[N+](C)(CC)CC.COS(=O)(=O)[O-] [N,N-diethyl-N-methylethanaminium methyl sulfate] | 1.46191 ± 0.0011 | 1.46065 ± 0.0011 | 1.45939 ± 0.0011 | 1.45812 ± 0.0011 | 1.45687 ± 0.0011 | 1.45561 ± 0.0011 | 1.45402 ± 0.0011 | 1.45283 ± 0.0011 | 79.7 ± 2.3 mPa·s | 1800 ± 5.1 m/s | 1154.32 ± 7.2 kg/m3 | 64 ± 1.7 mPa·s | 1787.1 ± 5.1 m/s | 1151.33 ± 7.2 kg/m3 | 53.42 ± 1.4 mPa·s | 1774.2 ± 5.1 m/s | 1148.34 ± 7.2 kg/m3 | 44.92 ± 1.2 mPa·s | 1761.5 ± 5.1 m/s | 1145.36 ± 7.1 kg/m3 | viscosity ([2]; 308.15 K): 218.5 ± 9.2 mPa·s; speed of sound ([2]; 308.15 K): 1853.5 ± 5.1 m/s; mass density ([2]; 308.15 K): 1166.44 ± 7.4 kg/m3; viscosity ([2]; 313.15 K): 165.6 ± 6.3 mPa·s; speed of sound ([2]; 313.15 K): 1839.7 ± 5.1 m/s; mass density ([2]; 313.15 K): 1163.4 ± 7.4 kg/m3; viscosity ([2]; 318.15 K): 127.7 ± 4.3 mPa·s; speed of sound ([2]; 318.15 K): 1826.3 ± 5.1 m/s; mass density ([2]; 318.15 K): 1160.36 ± 7.3 kg/m3; viscosity ([2]; 323.15 K): 100.3 ± 3.1 mPa·s; speed of sound ([2]; 323.15 K): 1813.1 ± 5.1 m/s; mass density ([2]; 323.15 K): 1157.34 ± 7.3 kg/m3; Normal melting temperature [2]: 33 ± 2 °C
3 | CCOS(=O)(=O)[O-].CC[N+]1(C)CCCC1 [1-ethyl-1-methylpyrrolidinium ethyl sulfate] | 1.47021 ± 0.0011 | 1.46891 ± 0.0011 | 1.4676 ± 0.0011 | 1.46632 ± 0.0011 | 1.46506 ± 0.0011 | 1.46378 ± 0.0011 | 1.46246 ± 0.0011 | 1.46116 ± 0.0011 | 71.2 ± 1.9 mPa·s | 1701 ± 5.1 m/s | 1177.22 ± 7.5 kg/m3 | 59.1 ± 1.6 mPa·s | 1689.2 ± 5.1 m/s | 1174.15 ± 7.5 kg/m3 | 49.5 ± 1.3 mPa·s | 1677.3 ± 5.1 m/s | 1171.11 ± 7.5 kg/m3 | 42 ± 1.1 mPa·s | 1665.7 ± 5.1 m/s | 1168.07 ± 7.4 kg/m3 | viscosity ([2]; 308.15 K): 172 ± 6.5 mPa·s; speed of sound ([2]; 308.15 K): 1750.2 ± 5.1 m/s; mass density ([2]; 308.15 K): 1189.67 ± 7.7 kg/m3; viscosity ([2]; 313.15 K): 134.9 ± 4.7 mPa·s; speed of sound ([2]; 313.15 K): 1737.5 ± 5.1 m/s; mass density ([2]; 313.15 K): 1186.53 ± 7.7 kg/m3; viscosity ([2]; 318.15 K): 107.5 ± 3.4 mPa·s; speed of sound ([2]; 318.15 K): 1725.2 ± 5.1 m/s; mass density ([2]; 318.15 K): 1183.41 ± 7.6 kg/m3; viscosity ([2]; 323.15 K): 86.8 ± 2.5 mPa·s; speed of sound ([2]; 323.15 K): 1713 ± 5.1 m/s; mass density ([2]; 323.15 K): 1180.3 ± 7.6 kg/m3; Normal melting temperature [2]: 33 ± 2 °C
4 | CCCC[N+]1(CC)CCCC1.CCOS(=O)(=O)[O-] [1-butyl-1-ethylpyrrolidinium ethyl sulfate] |  |  |  |  | 1.4671 ± 0.0011 | 1.46581 ± 0.0011 | 1.46454 ± 0.0011 | 1.46315 ± 0.0011 | 105.5 ± 3.3 mPa·s | 1602 ± 5.1 m/s | 1118.72 ± 6.8 kg/m3 | 82.9 ± 2.4 mPa·s | 1589.6 ± 5.1 m/s | 1115.98 ± 6.8 kg/m3 | 66.8 ± 1.8 mPa·s | 1577.2 ± 5.1 m/s | 1113.02 ± 6.7 kg/m3 | 55.8 ± 1.5 mPa·s | 1564.9 ± 5.1 m/s | 1110.08 ± 6.7 kg/m3 | Normal melting temperature [2]: 53 ± 2 °C
